Data: patent US8895578B2, “Carboxamide, sulfonamide and amine compounds and methods for using the same” (Rigel Pharmaceuticals, Inc., priority 2007, dated 2014)

Target: AMPK
Experiment: AMPK activation, enzyme-linked immunosorbent assay
Format: biochemical
Procedure: Compounds 1-54 were assayed for their ability to activate AMPK using an enzyme-linked immunosorbent assay.
Compounds 55-62 of Table 1 were assayed for their ability to activate AMPK using an enzyme-linked immunosorbent assay.
Compounds 63-66 of Table 1 were assayed for their ability to activate AMPK using an enzyme-linked immunosorbent assay.
Compounds 67-71 of Table 1 were assayed for their ability to activate AMPK using an enzyme-linked immunosorbent assay.
Compound 72 of Table 1 was assayed for its ability to activate AMPK using an enzyme-linked immunosorbent assay.

Compound | EC50 (Table 2, ELISA) | other results
N#Cc1ccc(CN2CCC(NC(=O)c3ccc4[nH]c5c(c4c3)CN(S(=O)(=O)c3ccc(C(F)(F)F)cc3)CC5)CC2)cc1 [Compound 24, N-(1-(4-cyanobenzyl)piperidin-4-yl)-2-(4-(trifluoromethyl)phenyl-sulfonyl)-2,3,4,5-tetrahydro-1H-pyrido[4,3-b]indole-8-carboxamide] | 1 to 5 µM | 
O=C(NC1CCN(c2ccc(F)cc2)CC1)c1ccc2[nH]c3c(c2c1)CN(Cc1ccc(C(F)(F)F)cc1)CC3 [Compound 15, N-(1-(4-fluorophenyl)piperidin-4-yl)-2-(4-(trifluoromethyl)benzyl)-2,3,4,5-tetrahydro-1H-pyrido[4,3-b]indole-8-carboxamide] | < 0.5 µM | 
CC(C)(C)OC(=O)N1CCC(NC(=O)c2cnc3ccc(OC4CCN(c5ccc(C(F)(F)F)cc5)CC4)cc3c2)CC1 [Compound 67, tert-butyl 4-(6-(1-(4-(trifluoromethyl)phenyl)piperidin-4-yloxy)quinoline-3-carboxamido)piperidine-1-carboxylate] |  | EC50 (Table 5, ELISA): 0.1 to 0.5 µM
O=C(NC1CCN(C(=O)c2ccncc2)CC1)c1ccc2[nH]c3c(c2c1)CN(Cc1ccc(C(F)(F)F)cc1)CC3 [Compound 51, N-(1-isonicotinoyl-piperidin-4-yl)-2-(4-(trifluoromethyl)benzyl)-2,3,4,5-tetrahydro-1H-pyrido[4,3-b]indole-8-carboxamide] | 0.5 to 1 µM | 
O=C(NC1CCN(S(=O)(=O)c2ccc(C(F)(F)F)cc2)CC1)c1ccc2[nH]c3c(c2c1)CN(Cc1ccc(C(F)(F)F)cc1)CC3 [Compound 23, 2-(4-(trifluoromethyl)benzyl)-N-(1-(4-(trifluoro-methyl)phenylsulfonyl)piperidin-4-yl)-2,3,4,5-tetrahydro-1H-pyrido[4,3-b]indole-8-carboxamide] | 1 to 5 µM | 
O=C(NC1CCN(Cc2cccnc2)CC1)c1ccc2[nH]c3c(c2c1)CN(c1ccc(F)cc1)CC3 [Compound 36, 2-(4-fluorophenyl)-N-(1-(pyridin-3-ylmethyl)piperidin-4-yl)-2,3,4,5-tetrahydro-1H-pyrido[4,3-b]indole-8-carboxamide] | > 100 µM | 
NC(=O)c1ccc(CN2CCc3[nH]c4ccc(C(=O)NC5CCN(C(=O)c6ccncc6)CC5)cc4c3C2)cc1 [Compound 46, 2-(4-carbamoylbenzyl)-N-(1-isonicotinoylpiperidin-4-yl)-2,3,4,5-tetrahydro-1H-pyrido[4,3-b]indole-8-carboxamide] | > 100 µM | 
O=C(NC1CCN(Cc2ccc(C(F)(F)F)cc2)CC1)c1ccc2[nH]c3c(c2c1)CN(Cc1ccccc1)CC3 [Compound 5, 2-benzyl-N-(1-(4-trifluoromethylbenzyl)piperidin-4-yl)-2,3,4,5-tetrahydro-1H-pyrido [4,3-b]indole-8-carboxamide] | 1 to 5 µM | 
O=C(NC1CCNCC1)c1cnc2ccc(OC3CCN(c4ccc(C(F)(F)F)cc4)CC3)cc2c1 [Compound 68, N-(piperidin-4-yl)-6-(1-(4-(trifluoromethyl)phenyl)piperidin-4-yloxy) quinoline-3-carboxamide] |  | EC50 (Table 5, ELISA): > 5 µM
N#Cc1ccc(CN2CCC(Oc3ccc4cc(C(=O)NC5CCN(Cc6ccccc6)CC5)ccc4c3)CC2)cc1 [Compound 64, N-(1-benzylpiperidin-4-yl)-6-(1-(4-cyano-benzyl)piperidin-4-yloxy)-2-naphthamide] |  | EC50 (Table 4, ELISA): < 0.5 µM
NC(=O)c1ccc(CN2CCc3[nH]c4ccc(C(=O)NC5CCN(Cc6ccc(C(F)(F)F)cc6)CC5)cc4c3C2)cc1 [Compound 47, 2-(4-carbamoylbenzyl)-N-(1-(4-(trifluoromethyl)benzyl)piperidin-4-yl)-2,3,4,5-tetrahydro-1H-pyrido[4,3-b]indole-8-carboxamide] | 10 to 50 µM | 
Cn1cnc(CN2CCC(NC(=O)c3ccc4[nH]c5c(c4c3)CN(Cc3ccc(C(F)(F)F)cc3)CC5)CC2)c1 [Compound 53, N-(1-((1-methyl-1H-imidazol-4-yl)methyl)piperidin-4-yl)-2-(4-(trifluoromethyl)benzyl)-2,3,4,5-tetrahydro-1H-pyrido[4,3-b]indole-8-carboxamide] | 10 to 50 µM | 
CC(=O)n1c2c(c3cc(C(=O)NC4CCN(Cc5cccnc5)CC4)ccc31)CN(Cc1ccc(C(F)(F)F)cc1)CC2 [Compound 20, 5-acetyl-N-(1-(pyridin-3-ylmethyl)piperidin-4-yl)-2-(4-(trifluoromethyl)benzyl)-2,3,4,5-tetrahydro-1H-pyrido[4,3-b]indole-8-carboxamide] | 1 to 5 µM | 
O=C(NC1CCN(CCc2ccccc2)CC1)c1ccc2[nH]c3c(c2c1)CN(Cc1ccc(C(F)(F)F)cc1)CC3 [Compound 14, N-(1-phenethyl-piperidin-4-yl)-2-(4-(trifluoromethyl)benzyl)-2,3,4,5-tetrahydro-1H-pyrido[4,3-b]indole-8-carboxamide] | < 0.5 µM | 
N#Cc1cccc(S(=O)(=O)N2CCC(NC(=O)c3ccc4[nH]c5c(c4c3)CN(Cc3ccc(C(F)(F)F)cc3)CC5)CC2)c1 [Compound 29, N-(1-(3-cyanophenyl-sulfonyl)piperidin-4-yl)-2-(4-(trifluoromethyl)benzyl)-2,3,4,5-tetrahydro-1H-pyrido[4,3-b]indole-8-carboxamide] | 1 to 5 µM | 
N#Cc1ccc(CN2CCC(NC(=O)c3ccc4[nH]c5c(c4c3)CN(Cc3ccc(C(N)=O)cc3)CC5)CC2)cc1 [Compound 44, 2-(4-carbamoylbenzyl)-N-(1-(4-cyanobenzyl)piperidin-4-yl)-2,3,4,5-tetrahydro-1H-pyrido[4,3-b]indole-8-carboxamide] | 10 to 50 µM | 
O=C(NC1CCN(S(=O)(=O)c2cccc(C(F)(F)F)c2)CC1)c1ccc2[nH]c3c(c2c1)CN(Cc1ccc(C(F)(F)F)cc1)CC3 [Compound 30, 2-(4-(trifluoromethyl)benzyl)-N-(1-(3-(trifluoro-methyl)phenylsulfonyl)piperidin-4-yl)-2,3,4,5-tetrahydro-1H-pyrido [4,3-b]indole-8-carboxamide] | 1 to 5 µM | 
N#Cc1ccc(CN2CCC(NC(=O)c3ccc4[nH]c5c(c4c3)CN(C(=O)OCc3ccccc3)CC5)CC2)cc1 [Compound 1, benzyl 8-(1-(4-cyanobenzyl)piperidin-4-ylcarbamoyl)-3,4-dihydro-1H-pyrido[4,3-b]indole-2(5H)-carboxylate] | 1 to 5 µM | 
O=C(NC1CCN(S(=O)(=O)c2ccc(F)cc2)CC1)c1ccc2[nH]c3c(c2c1)CN(Cc1ccc(C(F)(F)F)cc1)CC3 [Compound 28, N-(1-(4-fluorophenyl-sulfonyl)piperidin-4-yl)-2-(4-(trifluoromethyl)benzyl)-2,3,4,5-tetrahydro-1H-pyrido[4,3-b]indole-8-carboxamide] | 1 to 5 µM | 
O=C(NC1CCN(Cc2ccccc2)CC1)c1ccc(CN2CCN(CC3CCCCC3)CC2)cc1 [Compound 56, N-(1-benzylpiperidin-4-yl)-4-((4-(cyclohexyl-methyl)piperazin-1-yl)methyl)benzamide] |  | EC50 (Table 3, ELISA): 1 to 10 µM
O=C(NC1CCN(C(=O)c2cccnc2)CC1)c1ccc2[nH]c3c(c2c1)CN(c1ccc(F)cc1)CC3 [Compound 40, 2-(4-fluorophenyl)-N-(1-nicotinoylpiperidin-4-yl)-2,3,4,5-tetrahydro-1H-pyrido[4,3-b]indole-8-carboxamide] | > 100 µM | 
CC(C)(C)OC(=O)N1CCC(NC(=O)c2ccc3ccc(OC4CCN(c5ccc(C(F)(F)F)cc5)CC4)cc3c2)CC1 [Compound 66, tert-butyl 4-(7-(1-(4-(trifluoromethyl)phenyl)piperidin-4-yloxy)-2-naphthamido)piperidine-1-carboxylate] |  | EC50 (Table 4, ELISA): 1 to 5 µM
O=C(NC1CCN(Cc2ccccc2)CC1)c1ccc(CN2CCN(c3ccccn3)CC2)cc1 [Compound 58, N-(1-benzylpiperidin-4-yl)-4-((4-(pyridin-2-yl)piperazin-1-yl)methyl) benzamide] |  | EC50 (Table 3, ELISA): 1 to 10 µM
O=C(NC1CCN(Cc2cccnc2)CC1)c1ccc2[nH]c3c(c2c1)CN(Cc1ccc(C(F)(F)F)cc1)CC3 [Compound 11, N-(1-(pyridin-3-ylmethyl)piperidin-4-yl)-2-(4-(trifluoromethyl)benzyl)-2,3,4,5-tetrahydro-1H-pyrido[4,3-b]indole-8-carboxamide] | < 0.5 µM | 
CC(C)(C)OC(=O)N1CCC(NC(=O)c2ccc3[nH]c4c(c3c2)CN(Cc2ccc(C(N)=O)cc2)CC4)CC1 [Compound 43, tert-butyl 4-(2-(4-carbamoyl-benzyl)-2,3,4,5-tetrahydro-1H-pyrido[4,3-b]indole-8-carboxamido)piperidine-1-carboxylate] | > 100 µM | 
O=C(NC1CCN(Cc2ccc(C(F)(F)F)cc2)CC1)c1ccc2[nH]c3c(c2c1)CN(Cc1ccc(C(F)(F)F)cc1)CC3 [Compound 13, N-(1-(4-trifluoromethyl-benzyl)piperidin-4-yl)-2-(4-(trifluoromethyl)benzyl)-2,3,4,5-tetrahydro-1H-pyrido[4,3-b]indole-8-carboxamide] | < 0.5 µM | 
O=C(NC1CCN(Cc2ccc(C(F)(F)F)cc2)CC1)c1ccc(CN2CCN(Cc3ccccc3)CC2)cc1 [Compound 62, 4-((4-benzylpiperazin-1-yl)methyl)-N-(1-(4-trifluoromethylbenzyl)piperidin-4-yl) benzamide] |  | EC50 (Table 3, ELISA): < 0.1 µM
O=C(NC1CCN(C(=O)c2ccc(C(F)(F)F)cc2)CC1)c1ccc2[nH]c3c(c2c1)CN(c1ccc(F)cc1)CC3 [Compound 41, 2-(4-fluorophenyl)-N-(1-(4-(trifluoromethyl)benzoyl)piperidin-4-yl)-2,3,4,5-tetrahydro-1H-pyrido[4,3-b] indole-8-carboxamide] | 10 to 50 µM | 
O=C(NC1CCN(Cc2ccc(C(F)(F)F)cc2)CC1)c1ccc2[nH]c3c(c2c1)CN(c1ccc(F)cc1)CC3 [Compound 37, 2-(4-fluorophenyl)-N-(1-(4-(trifluoromethyl)benzyl)piperidin-4-yl)-2,3,4,5-tetrahydro-1H-pyrido[4,3-b] indole-8-carboxamide] | 5 to 10 µM | 
O=C(NC1CCN(Cc2ccncc2)CC1)c1ccc2[nH]c3c(c2c1)CN(Cc1ccc(C(F)(F)F)cc1)CC3 [Compound 50, N-(1-(pyridin-4-ylmethyl)piperidin-4-yl)-2-(4-(trifluoromethyl)benzyl)-2,3,4,5-tetrahydro-1H-pyrido[4,3-b]indole-8-carboxamide] | < 0.5 µM | 
